Legend:
Assay type in all cases: cell-based
[1] = target: TRPML1 (Homo sapiens, UniProt Q9GZU1); assay: Fluorescent TRPML1 assay (Fluo4-AM calcium fluorescence in doxycycline-induced HEK-293 Trex cells)
Summary of the method: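 First, expression of surface-targeted mutant human TRPML1 is induced in HEK-293 Trex cells with 0.5 ug/mL doxycycline the day before. Next, cells take up 1 micromolar Fluo4-AM in Ringer's with 0.1% Pluronic. Finally, they are added to compounds (6 nanomolar–20 micromolar final) in 10 mM calcium Ringer's and fluorescence is read.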

[2] = target: T1, TRPML2 (Homo sapiens, UniProt Q8IZK6); assay: Fluorescent TRPML2 assay (performed as for TRPML1, substituting the TRPML2 subtype)
T1 construct: expressed in transfected cells
T1 sequence (Q8IZK6 1-566): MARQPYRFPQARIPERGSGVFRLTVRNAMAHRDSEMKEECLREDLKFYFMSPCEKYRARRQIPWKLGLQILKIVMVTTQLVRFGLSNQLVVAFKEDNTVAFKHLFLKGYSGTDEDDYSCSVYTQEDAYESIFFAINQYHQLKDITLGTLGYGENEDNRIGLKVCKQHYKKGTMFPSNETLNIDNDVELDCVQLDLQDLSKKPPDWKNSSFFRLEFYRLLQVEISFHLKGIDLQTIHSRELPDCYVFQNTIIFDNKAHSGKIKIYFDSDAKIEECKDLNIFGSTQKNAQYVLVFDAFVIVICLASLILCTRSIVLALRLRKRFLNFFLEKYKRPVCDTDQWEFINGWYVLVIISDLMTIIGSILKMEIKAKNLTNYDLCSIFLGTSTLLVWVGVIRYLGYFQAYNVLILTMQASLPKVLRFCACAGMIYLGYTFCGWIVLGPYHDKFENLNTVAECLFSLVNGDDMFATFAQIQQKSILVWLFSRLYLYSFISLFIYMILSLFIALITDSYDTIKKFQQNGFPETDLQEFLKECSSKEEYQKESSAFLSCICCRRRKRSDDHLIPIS
Summary of the method: (§1)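 Compound series (final 6 nM-20 μM, half-log, triplicate) were added to Fluo4-AM-loaded HEK-293 Trex cells in 10 mM calcium Ringer's, expressing the human TRPML subtype after doxycycline 0.5 ug/mL induction. Percent activity versus positive/negative controls from 480/540 nm fluorescence; EC50 by non-linear regression.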

[3] = target: T2, TRPML3 (Homo sapiens, UniProt Q8TDD5); assay: Fluorescent TRPML3 assay (performed as for TRPML1, substituting the TRPML3 subtype)
T2 construct: expressed in transfected cells
T2 sequence (Q8TDD5 1-553): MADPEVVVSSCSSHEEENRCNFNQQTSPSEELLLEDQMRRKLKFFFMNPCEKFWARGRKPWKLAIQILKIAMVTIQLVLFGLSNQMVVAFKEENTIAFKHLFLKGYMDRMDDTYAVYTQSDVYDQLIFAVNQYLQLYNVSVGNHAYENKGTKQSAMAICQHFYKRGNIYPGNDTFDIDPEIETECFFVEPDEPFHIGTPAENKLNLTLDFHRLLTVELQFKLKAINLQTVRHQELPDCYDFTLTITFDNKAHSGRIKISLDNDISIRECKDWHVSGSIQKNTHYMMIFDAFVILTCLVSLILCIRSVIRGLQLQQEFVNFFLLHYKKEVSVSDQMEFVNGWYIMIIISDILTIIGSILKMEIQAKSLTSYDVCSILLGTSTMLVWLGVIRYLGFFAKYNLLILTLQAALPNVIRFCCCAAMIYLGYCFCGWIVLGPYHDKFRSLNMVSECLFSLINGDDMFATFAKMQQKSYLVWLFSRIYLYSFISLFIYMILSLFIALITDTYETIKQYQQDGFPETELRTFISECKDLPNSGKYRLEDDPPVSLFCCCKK
Summary of the method: as §1

TRPML1, sequence (Q9GZU1 whole entry L15A/L16A/L577A/L578A, form open): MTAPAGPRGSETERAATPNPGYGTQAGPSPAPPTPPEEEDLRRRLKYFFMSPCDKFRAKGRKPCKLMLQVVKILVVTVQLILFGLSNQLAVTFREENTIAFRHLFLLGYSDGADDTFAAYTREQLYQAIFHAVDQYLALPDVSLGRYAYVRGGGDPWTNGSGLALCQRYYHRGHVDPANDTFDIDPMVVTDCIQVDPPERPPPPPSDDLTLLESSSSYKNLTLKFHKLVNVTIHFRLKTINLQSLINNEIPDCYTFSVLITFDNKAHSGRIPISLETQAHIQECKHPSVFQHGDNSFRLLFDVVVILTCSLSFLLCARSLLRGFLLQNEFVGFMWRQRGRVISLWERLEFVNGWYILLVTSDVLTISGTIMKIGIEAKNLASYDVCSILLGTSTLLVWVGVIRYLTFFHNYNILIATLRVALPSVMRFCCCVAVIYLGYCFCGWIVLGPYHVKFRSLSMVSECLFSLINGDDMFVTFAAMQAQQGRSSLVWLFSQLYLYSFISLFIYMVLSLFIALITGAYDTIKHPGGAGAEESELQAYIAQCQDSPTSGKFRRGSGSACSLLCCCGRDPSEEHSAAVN

Compound	EC50 [1] [µM]	EC50 [2] [µM]	EC50 [3] [µM]
Cc1cn(-c2cccc(C(F)(F)F)c2)c2ncnc(N3C[C@@H](C)N(C(=O)OC(C)(C)C)C[C@@H]3C)c12 [Compound 667, tert-butyl (2R,5S)-2,5-dimethyl-4-(5-methyl-7-(3-(trifluoromethyl)phenyl)-7H-pyrrolo[2,3-d]pyrimidin-4-yl)piperazine-1-carboxylate]	< 0.1	0.1 to 0.5	< 0.1
Cc1cn(-c2ccccc2)c2ncnc(N3C[C@@H](C)N(C(=O)OC(C)(C)C)C[C@@H]3C)c12 [Compound 668, tert-butyl (2R,5S)-2,5-dimethyl-4-(5-methyl-7-phenyl-7H-pyrrolo[2,3-d]pyrimidin-4-yl)piperazine-1-carboxylate]	0.1 to 0.5	0.5 to 2	0.1 to 0.5
Cc1cn(-c2cccc(C#N)c2)c2ncnc(N3C[C@@H](C)N(C(=O)OC(C)(C)C)C[C@@H]3C)c12 [Compound 669, tert-butyl (2R,5S)-4-(7-(3-cyanophenyl)-5-methyl-7H-pyrrolo[2,3-d]pyrimidin-4-yl)-2,5-dimethylpiperazine-1-carboxylate]	< 0.1	0.5 to 2	< 0.1
Cc1cn(-c2cc(F)cc(F)c2)c2ncnc(N3C[C@@H](C)N(C(=O)OC(C)(C)C)C[C@@H]3C)c12 [Compound 670, tert-butyl (2R,5S)-4-(7-(3,5-difluorophenyl)-5-methyl-7H-pyrrolo[2,3-d]pyrimidin-4-yl)-2,5-dimethylpiperazine-1-carboxylate]	0.1 to 0.5	0.5 to 2	< 0.1
Cc1cn(-c2cccc(Cl)c2)c2ncnc(N3C[C@@H](C)N(C(=O)OC(C)(C)C)C[C@@H]3C)c12 [Compound 671, tert-butyl (2R,5S)-4-(7-(3-chlorophenyl)-5-methyl-7H-pyrrolo[2,3-d]pyrimidin-4-yl)-2,5-dimethylpiperazine-1-carboxylate]	< 0.1	0.1 to 0.5	< 0.1
Cc1cn(-c2cncc(F)c2)c2ncnc(N3C[C@@H](C)N(C(=O)OC(C)(C)C)C[C@@H]3C)c12 [Compound 672, tert-butyl (2R,5S)-4-(7-(5-fluoropyridin-3-yl)-5-methyl-7H-pyrrolo[2,3-d]pyrimidin-4-yl)-2,5-dimethylpiperazine-1-carboxylate]	0.1 to 0.5	0.5 to 2	0.1 to 0.5
Cc1cn(-c2ccccn2)c2ncnc(N3C[C@@H](C)N(C(=O)OC(C)(C)C)C[C@@H]3C)c12 [Compound 673, tert-butyl (2R,5S)-2,5-dimethyl-4-(5-methyl-7-(pyridin-2-yl)-7H-pyrrolo[2,3-d]pyrimidin-4-yl)piperazine-1-carboxylate]	0.1 to 0.5	> 2	0.1 to 0.5
Cc1cn(-c2cncc(C#N)c2)c2ncnc(N3C[C@@H](C)N(C(=O)OC(C)(C)C)C[C@@H]3C)c12 [Compound 675, tert-butyl (2R,5S)-4-(7-(5-cyanopyridin-3-yl)-5-methyl-7H-pyrrolo[2,3-d]pyrimidin-4-yl)-2,5-dimethylpiperazine-1-carboxylate]	< 0.1	0.1 to 0.5	0.1 to 0.5
Cc1cn(-c2ccc(F)cc2)c2ncnc(N3C[C@@H](C)N(C(=O)OC(C)(C)C)C[C@@H]3C)c12 [Compound 676, tert-butyl (2R,5S)-4-(7-(4-fluorophenyl)-5-methyl-7H-pyrrolo[2,3-d]pyrimidin-4-yl)-2,5-dimethylpiperazine-1-carboxylate]	< 0.1	0.1 to 0.5	< 0.1
Cc1cn(-c2cc(F)cc(Cl)c2)c2ncnc(N3C[C@@H](C)N(C(=O)OC(C)(C)C)C[C@@H]3C)c12 [Compound 677, tert-butyl (2R,5S)-4-(7-(3-chloro-5-fluorophenyl)-5-methyl-7H-pyrrolo[2,3-d]pyrimidin-4-yl)-2,5-dimethylpiperazine-1-carboxylate]	< 0.1	0.1 to 0.5	< 0.1
Cc1cn(-c2cc(F)ccn2)c2ncnc(N3CCN(C(=O)OC(C)(C)C)[C@H](C)C3)c12 [Compound 678, tert-butyl (R)-4-(7-(4-fluoropyridin-2-yl)-5-methyl-7H-pyrrolo[2,3-d]pyrimidin-4-yl)-2-methylpiperazine-1-carboxylate]	0.1 to 0.5	0.1 to 0.5	0.1 to 0.5
Cc1cn(-c2cc(C(F)(F)F)ccn2)c2ncnc(N3CCN(C(=O)OC(C)(C)C)[C@H](C)C3)c12 [Compound 679, tert-butyl (R)-2-methyl-4-(5-methyl-7-(4-(trifluoromethyl)pyridin-2-yl)-7H-pyrrolo[2,3-d]pyrimidin-4-yl)piperazine-1-carboxylatee]	< 0.1	< 0.1	< 0.1
Cc1cn(-c2cc(C#N)ccn2)c2ncnc(N3CCN(C(=O)OC(C)(C)C)[C@H](C)C3)c12 [Compound 680, tert-butyl (R)-4-(7-(4-cyanopyridin-2-yl)-5-methyl-7H-pyrrolo[2,3-d]pyrimidin-4-yl)-2-methylpiperazine-1-carboxylate]	< 0.1	< 0.1	< 0.1
Cc1cn(-c2cc(F)ccn2)c2ncnc(N3CCN(C(=O)OC(C)(C)C)C[C@@H]3C)c12 [Compound 681, tert-butyl (S)-4-(7-(4-fluoropyridin-2-yl)-5-methyl-7H-pyrrolo[2,3-d]pyrimidin-4-yl)-3-methylpiperazine-1-carboxylate]	< 0.1	< 0.1	< 0.1
Cc1cn(-c2cc(C(F)(F)F)ccn2)c2ncnc(N3CCN(C(=O)OC(C)(C)C)C[C@@H]3C)c12 [Compound 682, tert-butyl (S)-3-methyl-4-(5-methyl-7-(4-(trifluoromethyl)pyridin-2-yl)-7H-pyrrolo[2,3-d]pyrimidin-4-yl)piperazine-1-carboxylate]	< 0.1	< 0.1	< 0.1
Cc1cn(-c2cccc(F)c2)c2ncnc(N3CCN(C(=O)OC(C)(C)C)C[C@@H]3C)c12 [Compound 683, tert-butyl (S)-4-(7-(3-fluorophenyl)-5-methyl-7H-pyrrolo[2,3-d]pyrimidin-4-yl)-3-methylpiperazine-1-carboxylate]	< 0.1	0.1 to 0.5	< 0.1
Cc1cn(-c2cccc(C(F)(F)F)c2)c2ncnc(N3CCN(C(=O)OC(C)(C)C)C[C@@H]3C)c12 [Compound 684, tert-butyl (S)-3-methyl-4-(5-methyl-7-(3-(trifluoromethyl)phenyl)-7H-pyrrolo[2,3-d]pyrimidin-4-yl)piperazine-1-carboxylate]	< 0.1	< 0.1	< 0.1
Cc1cn(-c2ccccc2)c2ncnc(N3CCN(C(=O)OC(C)(C)C)C[C@@H]3C)c12 [Compound 685, tert-butyl (S)-3-methyl-4-(5-methyl-7-phenyl-7H-pyrrolo[2,3-d]pyrimidin-4-yl)piperazine-1-carboxylate]	< 0.1	0.5 to 2	< 0.1
Cc1cn(-c2cccc(C#N)c2)c2ncnc(N3CCN(C(=O)OC(C)(C)C)C[C@@H]3C)c12 [Compound 686, tert-butyl (S)-4-(7-(3-cyanophenyl)-5-methyl-7H-pyrrolo[2,3-d]pyrimidin-4-yl)-3-methylpiperazine-1-carboxylate]	< 0.1	< 0.1	< 0.1
Cc1cn(-c2cc(F)cc(F)c2)c2ncnc(N3CCN(C(=O)OC(C)(C)C)C[C@@H]3C)c12 [Compound 687, tert-butyl (S)-4-(7-(3,5-difluorophenyl)-5-methyl-7H-pyrrolo[2,3-d]pyrimidin-4-yl)-3-methylpiperazine-1-carboxylate]	< 0.1	0.1 to 0.5	< 0.1
Cc1cn(-c2cccc(Cl)c2)c2ncnc(N3CCN(C(=O)OC(C)(C)C)C[C@@H]3C)c12 [Compound 688, tert-butyl (S)-4-(7-(3-chlorophenyl)-5-methyl-7H-pyrrolo[2,3-d]pyrimidin-4-yl)-3-methylpiperazine-1-carboxylate]	< 0.1	< 0.1	< 0.1

— patent US20250136606A1, “MODULATORS OF TRPML, THEIR COMPOSITIONS AND METHODS OF USE” (Caraway Therapeutics, Inc., priority 2021, published 2025)
